# Measurements taken from patent US12214092B2, “Systems and methods for treating biological fluids” (Cerus Corporation, priority 2017, dated 2025).
# Key:
# [1] = Residual post-illumination amotosalen by LED wavelength in bacteria-spiked plasma, HPLC; details: for Pre-UV S-59: pre-illumination
# [2] = test system: P. acnes; experiment: Amotosalen and UV light (265-385 nm LEDs) treatment of P. acnes in plasma, colony forming unit assay; assay type: cell-based; details: 15 μM amotosalen, ~6.4 J/cm^2, plasma
# Excerpt: This system comprised single arrays facing (e.g., opposing) a platform positioned for the illumination of biological fluids placed on the platform (see e.g., FIG. 5). System controls provided for adjustment of the LEDs during treatment of the biological fluid samples, controlling both the timing and intensity of illumination by the LEDs to achieve a desired light UV light dose. Evaluation of photochemical conversion, photoproduct formation, pathogen inactivation, and plasma and/or platelet quality parameters are performed for each light source wavelength as described previously. In one study using the device, photochemical inactivation of various bacteria were tested for each of the above-referenced LEDs together with amotosalen. The bacteria included E. coli (Gram negative), S. epidermidis (Gram positive), and P. acnes (anaerobe). As there are known germicidal effects of ultraviolet light with wavelengths in the UVC and UVB range, the study was controlled to determine for each LED wavelength the total inactivation levels, as well as inactivation levels specifically resulting from the UV light (without added amotosalen) or the photochemical treatment process itself.
smiles,measurement,setting,value
"Cc1oc2c(C)c3oc(=O)cc(C)c3cc2c1COCCN [S-59, 3-(2-aminoethoxymethyl)-2,5,9-trimethylfuro[3,2-g]chromen-7-one]",Post-UV S-59,"[1]; E. coli plasma, 150 μM arm, 265 nm, ~3 J/cm^2",115.0 µM
same,Pre-UV S-59,"[1]; E. coli plasma, 150 μM arm, 280 nm arm",152.7 µM
same,Post-UV S-59,"[1]; E. coli plasma, 150 μM arm, 280 nm, ~3 J/cm^2",148.1 µM
same,Pre-UV S-59,"[1]; E. coli plasma, 150 μM arm, 310 nm arm",151.1 µM
same,Post-UV S-59,"[1]; E. coli plasma, 150 μM arm, 310 nm, ~3 J/cm^2",56.8 µM
same,Pre-UV S-59,"[1]; E. coli plasma, 150 μM arm, 325 nm arm",141.6 µM
same,Post-UV S-59,"[1]; E. coli plasma, 150 μM arm, 325 nm, ~3 J/cm^2",52.1 µM
same,Pre-UV S-59,"[1]; E. coli plasma, 150 μM arm, 340 nm arm",142.2 µM
same,Post-UV S-59,"[1]; E. coli plasma, 150 μM arm, 340 nm, ~3 J/cm^2",48.1 µM
same,Pre-UV S-59,"[1]; E. coli plasma, 150 μM arm, 365 nm arm",153.2 µM
same,Post-UV S-59,"[1]; E. coli plasma, 150 μM arm, 365 nm, ~3 J/cm^2",79.8 µM
same,Pre-UV S-59,"[1]; E. coli plasma, 150 μM arm, 385 nm arm",148.4 µM
same,Post-UV S-59,"[1]; E. coli plasma, 150 μM arm, 385 nm, ~3 J/cm^2",135.1 µM
same,Pre-UV S-59,"[1]; P. acnes plasma, 15 μM arm, 265 nm arm",15.7 µM
same,Post-UV S-59,"[1]; P. acnes plasma, 15 μM arm, 265 nm, ~6.4 J/cm^2",10.8 µM
same,Pre-UV S-59,"[1]; P. acnes plasma, 15 μM arm, 280 nm arm",15.7 µM
same,Post-UV S-59,"[1]; P. acnes plasma, 15 μM arm, 280 nm, ~6.4 J/cm^2",16.0 µM
same,Pre-UV S-59,"[1]; P. acnes plasma, 15 μM arm, 310 nm arm",15.7 µM
same,Post-UV S-59,"[1]; P. acnes plasma, 15 μM arm, 310 nm, ~6.4 J/cm^2",2.2 µM
same,Pre-UV S-59,"[1]; P. acnes plasma, 15 μM arm, 325 nm arm",15.7 µM
same,Post-UV S-59,"[1]; P. acnes plasma, 15 μM arm, 325 nm, ~6.4 J/cm^2",1.1 µM
same,Pre-UV S-59,"[1]; P. acnes plasma, 15 μM arm, 340 nm arm",15.7 µM
same,Post-UV S-59,"[1]; P. acnes plasma, 15 μM arm, 340 nm, ~6.4 J/cm^2",1.4 µM
same,Pre-UV S-59,"[1]; P. acnes plasma, 15 μM arm, 365 nm arm",15.7 µM
same,Post-UV S-59,"[1]; P. acnes plasma, 15 μM arm, 365 nm, ~6.4 J/cm^2",5.5 µM
same,Pre-UV S-59,"[1]; P. acnes plasma, 15 μM arm, 385 nm arm",15.7 µM
same,Post-UV S-59,"[1]; P. acnes plasma, 15 μM arm, 385 nm, ~6.4 J/cm^2",13.7 µM
same,Pre-UV S-59,"[1]; S. epidermidis plasma, 15 μM arm, 265 nm arm",14.4 µM
same,Post-UV S-59,"[1]; S. epidermidis plasma, 15 μM arm, 265 nm, ~3 J/cm^2",13.0 µM
same,Pre-UV S-59,"[1]; S. epidermidis plasma, 15 μM arm, 280 nm arm",14.8 µM
same,Post-UV S-59,"[1]; S. epidermidis plasma, 15 μM arm, 280 nm, ~3 J/cm^2",11.8 µM
same,Pre-UV S-59,"[1]; S. epidermidis plasma, 15 μM arm, 310 nm arm",14.3 µM
same,Post-UV S-59,"[1]; S. epidermidis plasma, 15 μM arm, 310 nm, ~3 J/cm^2",5.2 µM
same,Pre-UV S-59,"[1]; S. epidermidis plasma, 15 μM arm, 325 nm arm",14.9 µM
same,Post-UV S-59,"[1]; S. epidermidis plasma, 15 μM arm, 325 nm, ~3 J/cm^2",3.7 µM
same,Pre-UV S-59,"[1]; S. epidermidis plasma, 15 μM arm, 340 nm arm",14.8 µM
same,Post-UV S-59,"[1]; S. epidermidis plasma, 15 μM arm, 340 nm, ~3 J/cm^2",3.6 µM
same,Pre-UV S-59,"[1]; S. epidermidis plasma, 15 μM arm, 365 nm arm",14.8 µM
same,Post-UV S-59,"[1]; S. epidermidis plasma, 15 μM arm, 365 nm, ~3 J/cm^2",7.8 µM
same,Pre-UV S-59,"[1]; S. epidermidis plasma, 15 μM arm, 385 nm arm",15.0 µM
same,Post-UV S-59,"[1]; S. epidermidis plasma, 15 μM arm, 385 nm, ~3 J/cm^2",15.1 µM
same,residual amotosalen,[1]; amotosalen+325 nm and amotosalen+340 nm illumination,less than 5 μM
same,Log reduction from S-59,[2]; 265 nm,1.60 log
same,Log reduction total,[2]; 265 nm,6.03 log
same,Log reduction from S-59,[2]; 280 nm,0.71 log
same,Log reduction total,[2]; 280 nm,1.09 log
same,Log reduction from S-59,[2]; 310 nm,5.67 log
same,Log reduction total,[2]; 310 nm,6.99 log
same,Log reduction from S-59,[2]; 325 nm,6.54 log
same,Log reduction total,[2]; 325 nm,6.69 log
same,Log reduction from S-59,[2]; 340 nm,6.78 log
same,Log reduction total,[2]; 340 nm,6.99 log
same,Log reduction from S-59,[2]; 365 nm,6.67 log
same,Log reduction total,[2]; 365 nm,6.99 log
same,Log reduction from S-59,[2]; 385 nm,1.64 log
same,Log reduction total,[2]; 385 nm,1.97 log
